According to the Kinase Knowledgebase extract (Sharma et al. 2016):

Each molecule was assayed against MAPK14 (UniProt Q16539) (assay: Inhibition of MAPK14 Kinase Activity).
Chain of MAPK14 (Q16539 whole entry, looked up): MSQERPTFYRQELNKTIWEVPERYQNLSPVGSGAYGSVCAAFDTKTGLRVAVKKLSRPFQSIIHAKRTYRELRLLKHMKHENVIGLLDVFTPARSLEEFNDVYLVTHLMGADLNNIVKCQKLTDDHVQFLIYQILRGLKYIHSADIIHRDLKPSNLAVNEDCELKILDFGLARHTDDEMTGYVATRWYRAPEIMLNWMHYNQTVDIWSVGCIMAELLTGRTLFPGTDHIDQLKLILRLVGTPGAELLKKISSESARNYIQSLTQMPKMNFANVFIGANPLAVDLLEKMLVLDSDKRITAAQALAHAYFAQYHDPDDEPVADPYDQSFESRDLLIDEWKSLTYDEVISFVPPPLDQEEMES
For `CC(C)S(=O)(=O)n1c(N)nc2ccc(-c3nc(CCC(=O)O)[nH]c3-c3ccccc3)cc21`, the IC50 was ≤ 5 µM. In the case of `CC(C)S(=O)(=O)n1c(CCN)nc2ccc(-c3nc(-c4c(F)cccc4F)[nH]c3-c3ccccc3)cc21`, the IC50 is reported as ≤ 5 µM. For `CC(C)S(=O)(=O)n1c(N)nc2ccc(-c3c(-c4ccc(F)cc4)ncn3CC3CC3)cc21`, the IC50 was ≤ 5 µM. In the case of `CC(C)S(=O)(=O)n1c(N)nc2ccc(-c3nc(-c4ccc(Cl)s4)[nH]c3-c3ccc(F)cc3)cc21`, the IC50 is reported as ≤ 5 µM. `CC(C)S(=O)(=O)n1c(N)nc2ccc(-c3c(-c4ccccc4F)nc(-c4ccc(F)cc4F)n3C3CC3)cc21` was tested, and the IC50 was ≤ 5 µM. `CC(C)S(=O)(=O)n1c(N)nc2ccc(-c3c(-c4ccccc4)ncn3C3CCC(O)CC3)cc21` (stereo unspecified) was tested, and the IC50 was ≤ 5 µM. With `CC(C)S(=O)(=O)n1c(N)nc2ccc(-c3nc(-c4ccc(N5CCCC5)cc4)[nH]c3-c3ccccc3)cc21` the IC50 was ≤ 5 µM. `Nc1ccccc1Cc1nc2ccc(-c3[nH]cnc3-c3ccccc3)cc2[nH]1` was tested, and the IC50 was ≤ 5 µM. In the case of `CC(C)S(=O)(=O)n1c(N)nc2ccc(-c3c(-c4ccccc4)ncn3CCO)cc21`, the IC50 is reported as ≤ 5 µM. `CC(C)S(=O)(=O)n1c(N)nc2ccc(-c3nc(C4CCN(C(=O)OCc5ccccc5)CC4)[nH]c3-c3ccccc3)cc21` was tested, and the IC50 was ≤ 5 µM. `CC(C)S(=O)(=O)n1c(N)nc2ccc(-c3c(-c4ccccc4)ncn3C3CCN(C(=O)OC(C)(C)C)CC3)cc21` was tested, and the IC50 was ≤ 5 µM. With `CC(C)S(=O)(=O)n1c(N)nc2ccc(-c3nc(-c4c(F)cccc4F)[nH]c3-c3ccccc3)cc21` the IC50 was ≤ 5 µM. `CC(C)S(=O)(=O)n1c(N)nc2ccc(-c3c(-c4ccccc4)nc4ccccn34)cc21` was tested, and the IC50 was ≤ 5 µM. `CC(C)S(=O)(=O)n1c(N)nc2ccc(-c3nc(-c4ncc[nH]4)[nH]c3-c3ccccc3)cc21` was tested, and the IC50 was ≤ 5 µM. With `CC(C)S(=O)(=O)n1c(N)nc2ccc(-c3nc(-c4ccc([N+](=O)[O-])cc4F)[nH]c3-c3ccccc3)cc21` the IC50 was ≤ 5 µM. For `CC(C)S(=O)(=O)n1c(N)nc2ccc(-c3nc(C4CCOCC4)[nH]c3-c3ccccc3)cc21`, the IC50 was ≤ 5 µM. In the case of `CC(C)S(=O)(=O)n1c(N)nc2ccc(-c3nc(-c4cccs4)[nH]c3-c3cccc(C(F)(F)F)c3)cc21`, the IC50 is reported as ≤ 5 µM. With `CC(C)S(=O)(=O)n1c(N)nc2ccc(-c3c(-c4ccccc4)ncn3Cc3ccncc3)cc21` the IC50 was ≤ 5 µM. `CC(C)S(=O)(=O)n1c(N)nc2ccc(-c3nc(-c4ccc(C(F)(F)F)cc4)[nH]c3-c3ccccc3)cc21` was tested, and the IC50 was ≤ 5 µM. For `CC(C)S(=O)(=O)n1c(N)nc2ccc(-c3c(-c4ccccc4)ncn3C3CCC(NC(=O)OC(C)(C)C)CC3)cc21` (stereo unspecified), the IC50 was ≤ 5 µM. With `CC(C)S(=O)(=O)n1c(N)nc2ccc(-c3nc(-c4ccc(N(C)C)cc4)[nH]c3-c3ccccc3)cc21` the IC50 was ≤ 5 µM. With `CC(C)S(=O)(=O)n1c(N)nc2ccc(-c3nc(-c4cccs4)[nH]c3-c3ccc(C(F)(F)F)cc3)cc21` the IC50 was ≤ 5 µM. With `Cc1nc(-c2ccc3nc(N)n(S(=O)(=O)C(C)C)c3c2)c(-c2ccc(F)cc2)[nH]1` the IC50 was ≤ 5 µM. With `CC(C)S(=O)(=O)n1c(N)nc2ccc(-c3nc(-c4ccc(OCCN5CCCC5)c(F)c4)[nH]c3-c3ccccc3)cc21` the IC50 was ≤ 5 µM. For `CC(C)S(=O)(=O)n1c(N)nc2ccc(-c3nc(-c4c(F)cc(OCCN5CCCC5)cc4F)[nH]c3-c3ccccc3)cc21`, the IC50 was ≤ 5 µM. For `CC(C)S(=O)(=O)n1c(N)nc2ccc(-c3nc(-c4ccc(F)cc4F)[nH]c3-c3ccccc3)cc21`, the IC50 was ≤ 5 µM. In the case of `CC(C)S(=O)(=O)n1c(N)nc2ccc(-c3nc(-c4c(F)cccc4F)oc3-c3ccccc3)cc21`, the IC50 is reported as ≤ 5 µM. With `CC(C)S(=O)(=O)n1c(N)nc2ccc(-c3c(-c4ccccc4)ncn3C3CC3)cc21` the IC50 was ≤ 5 µM. With `CC(C)S(=O)(=O)n1c(N)nc2ccc(-c3nc(C(C)(C)C)[nH]c3-c3ccc(F)cc3)cc21` the IC50 was ≤ 5 µM. `CC(C)S(=O)(=O)n1c(N)nc2ccc(-c3nc(-c4ccsc4)[nH]c3-c3ccc(F)cc3)cc21` was tested, and the IC50 was ≤ 5 µM. In the case of `CC(C)S(=O)(=O)n1c(N)nc2ccc(-c3c(-c4ccccc4)nc4n3CCCC4)cc21`, the IC50 is reported as ≤ 5 µM. `CC(C)S(=O)(=O)n1c(N)nc2ccc(-c3c(-c4ccccc4)ncn3C3CCCCC3)cc21` was tested, and the IC50 was ≤ 5 µM. With `C#Cc1nc(-c2ccccc2)c(-c2ccc3nc(N)n(S(=O)(=O)C(C)C)c3c2)n1C1CCCCC1` the IC50 was ≤ 5 µM. `CC(C)S(=O)(=O)n1c(N)nc2ccc(-c3nc(CNCCN(C)C)[nH]c3-c3ccccc3)cc21` was tested, and the IC50 was ≤ 5 µM. For `CC(C)S(=O)(=O)n1c(N)nc2ccc(-c3c(-c4ccccc4)nn4c3CCC4)cc21`, the IC50 was ≤ 5 µM. In the case of `CC(C)S(=O)(=O)n1c(N)nc2ccc(-c3c(-c4cccc(F)c4F)ncn3C)cc21`, the IC50 is reported as ≤ 5 µM. In the case of `CC(C)S(=O)(=O)n1c(N)nc2ccc(-c3nc[nH]c3-c3ccccc3)cc21`, the IC50 is reported as ≤ 5 µM. With `CC(C)S(=O)(=O)n1c(N)nc2ccc(-c3nc(-c4cccs4)n(C)c3-c3ccccc3)cc21` the IC50 was ≤ 5 µM. In the case of `CC(C)S(=O)(=O)n1c(N)nc2ccc(-c3nc(-c4ccc(NS(C)(=O)=O)cc4)[nH]c3-c3ccccc3)cc21`, the IC50 is reported as ≤ 5 µM. `CC(C)S(=O)(=O)n1c(N)nc2ccc(-c3nc(-c4ccccc4C(F)(F)F)[nH]c3-c3ccccc3)cc21` was tested, and the IC50 was ≤ 5 µM. `Cc1cc(-c2ccc3nc(N)n(S(=O)(=O)C(C)C)c3c2)n(-c2ccccc2)n1` was tested, and the IC50 was ≤ 5 µM. For `CC(C)S(=O)(=O)n1c(N)nc2ccc(-c3[nH]n(-c4cc(F)ccc4F)c(=O)c3-c3ccccc3)cc21`, the IC50 was ≤ 5 µM. With `CC(C)S(=O)(=O)n1c(N)nc2ccc(-c3nc(-c4ccc(F)cc4F)[nH]c3-c3cc(F)cc(F)c3)cc21` the IC50 was ≤ 5 µM. In the case of `CC(C)S(=O)(=O)n1c(N)nc2ccc(-c3nc(C4CCN(CCC(F)(F)F)CC4)[nH]c3-c3ccccc3)cc21`, the IC50 is reported as ≤ 5 µM. For `CC(C)S(=O)(=O)n1c(N)nc2ccc(-c3nc(-c4cccc(OCCN5CCOCC5)c4)[nH]c3-c3ccccc3)cc21`, the IC50 was ≤ 5 µM. `CC(C)S(=O)(=O)n1c(N)nc2ccc(-c3nc(C4CCCCC4)[nH]c3-c3ccccc3)cc21` was tested, and the IC50 was ≤ 5 µM. With `CC(C)S(=O)(=O)n1c(N)nc2ccc(-c3c(-c4ccccc4F)ncn3[C@H]3CC[C@H](O)CC3)cc21` the IC50 was ≤ 5 µM. For `CC(C)S(=O)(=O)n1c(N)nc2ccc(-c3c(-c4ccccc4F)ncn3C3CC3)cc21`, the IC50 was ≤ 5 µM. For `CC(C)S(=O)(=O)n1c(N)nc2ccc(-c3nc(CNCCN4CCCCC4)[nH]c3-c3ccccc3)cc21`, the IC50 was ≤ 5 µM. `NCCc1nc2ccc(-c3c(-c4ccccc4)ncn3C3CCCCC3)cc2s1` was tested, and the IC50 was ≤ 5 µM. For `CC(C)S(=O)(=O)n1c(N)nc2ccc(-c3nc(CN4CCOCC4)[nH]c3-c3ccccc3)cc21`, the IC50 was ≤ 5 µM. `CC(C)S(=O)(=O)n1c(N)nc2ccc(-c3c(-c4ccccc4F)nc(Br)n3C3CC3)cc21` was tested, and the IC50 was ≤ 5 µM. For `CC(C)S(=O)(=O)n1c(N)nc2ccc(-c3c(-c4ccccc4)nc(-c4cccs4)n3C)cc21`, the IC50 was ≤ 5 µM. For `CC(C)S(=O)(=O)n1c(N)nc2ccc(-c3c(C#N)cnn3-c3ccccc3)cc21`, the IC50 was ≤ 5 µM. For `CC(C)S(=O)(=O)n1c(N)nc2ccc(-c3nc(-c4ccc(OCCCN(C)C)c(F)c4)[nH]c3-c3ccccc3)cc21`, the IC50 was ≤ 5 µM. `CC(C)S(=O)(=O)n1c(N)nc2ccc(-c3[nH]n(-c4ccccc4)c(=O)c3-c3ccc(F)cc3)cc21` was tested, and the IC50 was ≤ 5 µM. For `CC(C)S(=O)(=O)n1c(N)nc2ccc(-c3c(-c4ccccc4)ncn3C3CCN(C)CC3)cc21`, the IC50 was ≤ 5 µM. With `CC(C)S(=O)(=O)n1c(N)nc2ccc(-c3nc[nH]c3-c3cccc(F)c3)cc21` the IC50 was ≤ 5 µM. With `CCNc1ccc(-c2nc(-c3ccc4nc(N)n(S(=O)(=O)C(C)C)c4c3)c(-c3ccccc3)[nH]2)cc1` the IC50 was ≤ 5 µM. `CC(C)S(=O)(=O)n1c(N)nc2ccc(-c3nc(CN4CCCCC4)[nH]c3-c3ccccc3)cc21` was tested, and the IC50 was ≤ 5 µM. For `CC(C)S(=O)(=O)n1c(N)nc2ccc(-c3c(-c4ccc(F)cc4F)ncn3C3CC3)cc21`, the IC50 was ≤ 5 µM. For `CC(C)S(=O)(=O)n1c(N)nc2ccc(-c3c(-c4ccc(F)cc4F)ncn3C3CCCCC3)cc21`, the IC50 was ≤ 5 µM. With `Cc1ccccc1-c1[nH]c(-c2ccc(F)cc2)nc1-c1ccc2nc(N)n(S(=O)(=O)C(C)C)c2c1` the IC50 was ≤ 5 µM. For `Cc1cccc(-c2[nH]c(C)nc2-c2ccc3nc(N)n(S(=O)(=O)C(C)C)c3c2)c1`, the IC50 was ≤ 5 µM. With `CC(C)N1CCC(n2cnc(-c3ccccc3)c2-c2ccc3nc(N)n(S(=O)(=O)C(C)C)c3c2)CC1` the IC50 was ≤ 5 µM. In the case of `COCCn1cnc(-c2ccccc2)c1-c1ccc2nc(N)n(S(=O)(=O)C(C)C)c2c1`, the IC50 is reported as ≤ 5 µM. In the case of `CC(C)S(=O)(=O)n1c(N)nc2ccc(-c3c(-c4ccccc4)ncn3C3CCC(N)CC3)cc21` (stereo unspecified), the IC50 is reported as ≤ 5 µM. `CC(C)S(=O)(=O)n1c(N)nc2ccc(-c3nc(-c4ccc(N)cc4)[nH]c3-c3ccccc3)cc21` was tested, and the IC50 was ≤ 5 µM. `CC(C)S(=O)(=O)n1c(N)nc2ccc(-c3c(-c4ccccc4)ncn3Cc3ccc(F)cc3)cc21` was tested, and the IC50 was ≤ 5 µM. With `CC(C)S(=O)(=O)n1c(N)nc2ccc(-c3c(-c4ccccc4F)nc(N=[N+]=[N-])n3C3CC3)cc21` the IC50 was ≤ 5 µM. For `CC(C)S(=O)(=O)n1c(N)nc2ccc(-c3nc(-c4ccc(OC(F)(F)F)cc4)[nH]c3-c3ccccc3)cc21`, the IC50 was ≤ 5 µM. For `Cc1nc(-c2ccc3nc(N)n(S(=O)(=O)C(C)C)c3c2)c(-c2ccc(F)cc2F)n1Cc1ccccc1`, the IC50 was ≤ 5 µM. In the case of `Nc1nc2ccc(-c3c(-c4ccccc4)ncn3C3CCCCC3)cc2s1`, the IC50 is reported as ≤ 5 µM. In the case of `CC(C)S(=O)(=O)n1c(N)nc2ccc(-c3c(-c4ccccc4F)ncn3Cc3cccnc3)cc21`, the IC50 is reported as ≤ 5 µM. In the case of `CC(C)S(=O)(=O)n1c(N)nc2ccc(-c3nc(-c4cccnc4)[nH]c3-c3ccccc3)cc21`, the IC50 is reported as ≤ 5 µM. With `C#Cc1nc(-c2ccccc2F)c(-c2ccc3nc(N)n(S(=O)(=O)C(C)C)c3c2)n1C1CC1` the IC50 was ≤ 5 µM. `CC(C)S(=O)(=O)n1c(N)nc2ccc(-c3c(-c4ccccc4F)nc(N)n3C3CC3)cc21` was tested, and the IC50 was ≤ 5 µM. For `CCOC(=O)N1CCC(n2cnc(-c3cccc(F)c3)c2-c2ccc3nc(N)n(S(=O)(=O)C(C)C)c3c2)CC1`, the IC50 was ≤ 5 µM. In the case of `CC(C)S(=O)(=O)n1c(N)nc2ccc(-c3nc(-c4c(F)cccc4C(F)(F)F)[nH]c3-c3ccccc3)cc21`, the IC50 is reported as ≤ 5 µM. For `CC(C)S(=O)(=O)n1c(N)nc2ccc(-c3c(-c4ccccc4)nc4n3CCC4)cc21`, the IC50 was ≤ 5 µM. In the case of `CC(C)S(=O)(=O)n1c(N)nc2ccc(-c3nc(-c4nccs4)[nH]c3-c3ccccc3)cc21`, the IC50 is reported as ≤ 5 µM.
